Assays:
Format in all cases: cell-based
[1] = system: Chikungunya virus (CHIKV); test: microbe, parasite or virus in culture; conditions: Chikungunya virus, Vero, 48 h, read-out: Percent viral inhibition CHKV
Marburg virus (MARV) = test: organism not typed; conditions: Vero, 72 h, read-out: Percent viral inhibition MARV
dengue virus (DENV) = test: microbe, parasite or virus in culture; conditions: Dengue virus, Vero, 120 h, read-out: Percent viral inhibition DENY

| Structure (SMILES) | inhibition at 1 µM [1] [%] | inhibition at 1 µM (Marburg virus (MARV)) [%] | inhibition at 1 µM (dengue virus (DENV)) [%] |
| --- | --- | --- | --- |
| NC1(CO)CCN(c2ncc(Oc3cc(CN4CCC(CC(=O)O)CC4)cc(-c4cc(Cl)cc(Cl)c4)n3)cn2)CC1 [Example 165, 2-(1-((2-((2-(4-amino-4-(hydroxymethyl)piperidin-1-yl)pyrimidin-5-yl)oxy)-6-(3,5-dichlorophenyl)pyridin-4-yl)methyl)piperidin-4-yl) acetic acid] | 18.6 | 50.9 | 36.9 |
| O=C(O)CC1CCN(Cc2cc(Oc3ccc(N4CCCNCC4)nc3)nc(-c3cc(Cl)cc(Cl)c3)c2)CC1 [Example 166, 2-(1-((2-((6-(1,4-diazepan-1-yl)pyridin-3-yl)oxy)-6-(3,5-dichlorophenyl)pyridin-4-yl)methyl)piperidin-4-yl) acetic acid] | 35.3 | 45 | 21.3 |
| CC(=O)NCC1CCN(Cc2cc(Oc3cnc(N4CCN(CCS(C)(=O)=O)CC4)nc3)cc(-c3cc(Cl)cc(Cl)c3)c2)CC1 [Example 167, N-((1-((3′,5′-dichloro-5-((2-(4-(2-(methylsulfonyl)ethyl)piperazin-1-yl)pyrimidin-5-yl)oxy)-[1,1′-biphenyl]-3-yl)methyl)piperidin-4-yl)methyl)acetamide] | 0 | 0 | 41.3 |
| CC(=O)NCC1CCN(Cc2cc(Oc3cnc(N4CCN(CCC(=O)O)CC4)nc3)cc(-c3cc(Cl)cc(Cl)c3)c2)CC1 [Example 168] | 29.6 | 60.3 | 38.9 |
| CC(=O)NCC1CCN(Cc2cc(Oc3ccc(N4CCN(CCC(=O)O)CC4)nn3)nc(-c3cc(Cl)cc(Cl)c3)c2)CC1 [Example 169, 3-(4-(6-((4-((4-(acetamidomethyl)piperidin-1-yl)methyl)-6-(3,5-dichlorophenyl)pyridin-2-yl)oxy)pyridazin-3-yl)piperazin-1-yl)propanoic acid] | 0 | 16.4 | 0 |
| CC(=O)NCC1CCN(Cc2cc(Oc3cnc(N4CCN(CCC(N)=O)CC4)nc3)cc(-c3cc(Cl)cc(Cl)c3)c2)CC1 [Example 170, 3-(4-(5-((5-((4-(acetamidomethyl)piperidin-1-yl)methyl)-3′,5′-dichloro-[1,1′-biphenyl]-3-yl)oxy)pyrimidin-2-yl)piperazin-1-yl)propanamide] | 7.29 | 10.3 | 57.6 |
| CNC(=O)NCC1CCN(Cc2cc(Oc3cnc(N4CCN(CCCO)CC4)nc3)nc(-c3cc(Cl)cc(Cl)c3)c2)CC1 [Example 171, 1-((1-((2-(3,5-dichlorophenyl)-6-((2-(4-(3-hydroxypropyl)piperazin-1-yl)pyrimidin-5-yl)oxy)pyridin-4-yl)methyl)piperidin-4-yl)methyl)-3-methylurea] | 0 | 0 | 41.7 |
| O=C(O)CC1CCN(Cc2cc(Oc3cnc(N4CCN(CC(O)CO)CC4)nc3)nc(-c3cc(Cl)cc(Cl)c3)c2)CC1 (stereo not drawn) [Example 177, 2-(1-((2-(3,5-dichlorophenyl)-6-((2-(4-(2,3-dihydroxypropyl)piperazin-1-yl)pyrimidin-5-yl)oxy)pyridin-4-yl)methyl)piperidin-4-yl)acetic acid] | 14.3 | 37 | 24 |
| CC(=O)NCC1CCN(Cc2cc(Oc3ccc(N4CC[N+](C)([O-])CC4)nc3)nc(-c3cc(Cl)cc(Cl)c3)c2)CC1 [Example 178, 4-(5-((4-((4-(acetamidomethyl)piperidin-1-yl)methyl)-6-(3,5-dichlorophenyl)pyridin-2-yl)oxy)pyridin-2-yl)-1-methylpiperazinel-oxide] | 30.4 | 57.7 | 71.1 |
| CC(=O)NCC1CCN(Cc2cc(Oc3ccc(N4CC[N+](CCO)(CCO)CC4)nc3)nc(-c3cc(Cl)cc(Cl)c3)c2)CC1 [Example 179, 4-(5-((4-((4-(acetamidomethyl)piperidin-1-yl)methyl)-6-(3,5-dichlorophenyl)pyridin-2-yl)oxy)pyridin-2-yl)-1,1-bis(2-hydroxyethyl) piperazin-1-ium] | 5.87 | 27.4 | 42.1 |
| CC(=O)NCC1CCN(Cc2cc(Oc3ccc(N4CCN(CCO)CC4)nc3)nc(-c3cc(Cl)cc(Cl)c3)c2)CC1 [Example 180, N-((1-((2-(3,5-dichlorophenyl)-6-((6-(4-(2-hydroxyethyl)piperazin-1-yl)pyridin-3-yl)oxy)pyridin-4-yl)methyl)piperidin-4-yl)methyl)acetamide] | 0 | 25.4 | 10.4 |
| CC(=O)NCC1CCN(Cc2cc(Oc3ccc(N4CC[N+](C)(C)CC4)nc3)nc(-c3cc(Cl)cc(Cl)c3)c2)CC1 [Example 181, 4-(5-((4-((4-(acetamidomethyl)piperidin-1-yl)methyl)-6-(3,5-dichlorophenyl)pyridin-2-yl)oxy)pyridin-2-yl)-1,1-dimethylpiperazin-1-ium] | 11.7 | 12.5 | 49.1 |
| CC(=O)NCC1CCN(Cc2cc(Oc3ccc(N4C[C@@H]5C[C@H]4CN5CCS(C)(=O)=O)nc3)nc(-c3cc(Cl)cc(Cl)c3)c2)CC1 [Example 183, N-((1-((2-(3,5-dichlorophenyl)-6-((6-((1S,4S)-5-(2-(methylsulfonyl)ethyl)-2,5-diazabicyclo[2.2.1]heptan-2-yl)pyridin-3-yl)oxy)pyridin-4-yl)methyl)piperidin-4-yl)methyl)acetamide] | 16.4 | 74.8 | 21 |
| CC(=O)NCC1CCN(Cc2cc(Oc3ccc(N4C[C@H]5CC[C@@H](C4)N5CCC(=O)O)nc3)nc(-c3cc(Cl)cc(Cl)c3)c2)CC1 [Example 185, 3-((1R,5S)-3-(5-((4-((4-(acetamidomethyl)piperidin-1-yl)methyl)-6-(3,5-dichlorophenyl)pyridin-2-yl)oxy)pyridin-2-yl)-3,8-diazabicyclo[3.2.1]octan-8-yl) propanoic acid] | 22.9 | 64.2 | 0 |
| CC(=O)NCC1CCN(Cc2cc(Oc3ccc(N4CCN(CCC(=O)O)[C@@H](C)C4)nc3)nc(-c3cc(Cl)cc(Cl)c3)c2)CC1 [Example 186] | 19.9 | 30.6 | 53.9 |
| O=C(O)CC1CCN(Cc2cc(Oc3ccc(N4C[C@@H]5C[C@H]4CN5)nc3)nc(-c3cc(Cl)cc(Cl)c3)c2)CC1 [Example 187, 2-(1-((2-((6-((1S,4S)-2,5-diazabicyclo[2.2.1]heptan-2-yl)pyridin-3-yl)oxy)-6-(3,5-dichlorophenyl)pyridin-4-yl)methyl)piperidin-4-yl) acetic acid] | 22.4 | 24.1 | 84 |
| CC(=O)NCC1CCN(Cc2cc(Oc3ccc(N4CCCN(CCC(=O)O)CC4)nc3)nc(-c3cc(Cl)cc(Cl)c3)c2)CC1 [Example 190, 3-(4-(5-((4-((4-(acetamidomethyl)piperidin-1-yl)methyl)-6-(3,5-dichlorophenyl)pyridin-2-yl)oxy)pyridin-2-yl)-1,4-diazepan-1-yl)propanoic acid] | 2.11 | 44.8 | 41.8 |

From patent US20230011571A1, “SMALL MOLECULE FURIN INHIBITORS FOR TREATING INFECTIOUS DISEASES” (BP Asset V, Inc., priority 2019, published 2023)
